Measurements reported in PubChem BioAssay AID248 (DTP/NCI, 2004).
“And” between values parts separate entries of the source, which are not always exact repeats. Equal entries are not always repeated. Toxic doses and inconclusive results are not listed.

Test system: L1210 leukemia ip in BDF1 mice, survival T/C
Test: NCI In Vivo Anticancer Drug Screen. Data for tumor model L1210 Leukemia (intraperitoneal) in B6D2F1 (BDF1) mice
Conditions: endpoint: mean survival time, higher = longer survival
How it was run: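 Transplantable tumor model; survival measured in treated vs vehicle control mice. Value = treated/control.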

[1] = dose: 25.0 mg/kg/injection, schedule: Q01DX009 (ip), vehicle: Klucel (hydroxypropylcellulose) (HPC)
[2] = dose: 50.0 mg/kg/injection, schedule: Q01DX009 (ip), vehicle: Klucel (hydroxypropylcellulose) (HPC)
[3] = dose: 100.0 mg/kg/injection, schedule: Q01DX001 (ip), vehicle: Klucel (hydroxypropylcellulose) (HPC)
[4] = dose: 100.0 mg/kg/injection, schedule: Q01DX009 (ip), vehicle: Klucel (hydroxypropylcellulose) (HPC)
[5] = dose: 200.0 mg/kg/injection, schedule: Q01DX009 (ip), vehicle: Klucel (hydroxypropylcellulose) (HPC)
[6] = dose: 400.0 mg/kg/injection, schedule: Q01DX009 (ip), vehicle: Klucel (hydroxypropylcellulose) (HPC)
[7] = dose: 50.0 mg/kg/injection, schedule: Q01DX001 (ip), vehicle: carboxymethylcellulose (CMC)
[8] = dose: 100.0 mg/kg/injection, schedule: Q01DX001 (ip), vehicle: carboxymethylcellulose (CMC)
[9] = dose: 200.0 mg/kg/injection, schedule: Q01DX001 (ip), vehicle: carboxymethylcellulose (CMC)
[10] = dose: 400.0 mg/kg/injection, schedule: Q01DX001 (ip), vehicle: carboxymethylcellulose (CMC)
[11] = dose: 100.0 mg/kg/injection, schedule: Q04DX003 (ip), vehicle: Klucel (hydroxypropylcellulose) (HPC)
[12] = dose: 200.0 mg/kg/injection, schedule: Q04DX003 (ip), vehicle: Klucel (hydroxypropylcellulose) (HPC)
[13] = dose: 400.0 mg/kg/injection, schedule: Q04DX003 (ip), vehicle: Klucel (hydroxypropylcellulose) (HPC)
[14] = dose: 200.0 mg/kg/injection, schedule: Q01DX009 (ip), vehicle: saline with Tween-80
[15] = dose: 100.0 mg/kg/injection, schedule: Q04DX002 (ip), vehicle: saline with Tween-80
[16] = dose: 200.0 mg/kg/injection, schedule: Q04DX002 (ip), vehicle: saline with Tween-80
[17] = dose: 400.0 mg/kg/injection, schedule: Q04DX002 (ip), vehicle: saline with Tween-80
[18] = dose: 100.0 mg/kg/injection, schedule: Q01DX009 (ip), vehicle: saline with Tween-80

Cc1c(C#N)c2n(c1C)CCN2
T/C [1]: 105 % of control | T/C [2]: 97 % of control | T/C [3]: 91 % of control | T/C [4]: 94 % of control

CS(=O)(=O)OCCN(CCOS(C)(=O)=O)c1ccc(C=Nc2cccc(C(=O)O)c2)cc1
T/C (dose: 2.5 mg/kg/injection, schedule: Q04DX003 (ip), vehicle: Klucel (hydroxypropylcellulose) (HPC)): 111 % of control | T/C (dose: 5.0 mg/kg/injection, schedule: Q04DX003 (ip), vehicle: Klucel (hydroxypropylcellulose) (HPC)): 120 % of control | T/C (dose: 80.0 mg/kg/injection, schedule: Q04DX003 (ip), vehicle: Klucel (hydroxypropylcellulose) (HPC)): 91 % of control

Cc1cc(C)c(NC(=O)c2ccco2)cc1C
T/C [4]: 105 % of control | T/C [5]: 92 % of control | T/C [6]: 105 % of control

COC1C(CO)OC(n2cnc3c(N)ncnc32)C1O (stereo not given)
T/C [7]: 102 % of control | T/C [8]: 110 % of control | T/C [9]: 116 % of control | T/C [10]: 98 % of control

CC1(c2cccc3ccccc23)OCC2(CCCCC2)CO1
T/C (dose: 81.3 mg/kg/injection, schedule: Q01DX009 (ip), vehicle: DMSO): 109 % of control | T/C (dose: 100.0 mg/kg/injection, schedule: Q04DX003 (ip), vehicle: DMSO): 92 % of control | T/C (dose: 200.0 mg/kg/injection, schedule: Q04DX003 (ip), vehicle: DMSO): 90 % of control | T/C (dose: 400.0 mg/kg/injection, schedule: Q04DX003 (ip), vehicle: DMSO): 95 % of control

CC(=O)CC(=O)Nc1ccc(-c2ccc(NC(=O)CC(C)=O)c(Cl)c2)cc1Cl
T/C [4]: 95 % of control | T/C [11]: 98 % of control | T/C [5]: 97 % of control | T/C [12]: 98 % of control | T/C [6]: 93 % of control | T/C [13]: 91 % of control

Cc1cc(C(=O)O)c(C(=O)O)c(Cl)n1
T/C (dose: 75.0 mg/kg/injection, schedule: Q01DX001 (ip), vehicle: other): 90 % of control | T/C (dose: 150.0 mg/kg/injection, schedule: Q01DX001 (ip), vehicle: other): 95 % of control | T/C (dose: 300.0 mg/kg/injection, schedule: Q01DX001 (ip), vehicle: other): 91 % of control

CN(C)N=Nc1ccc([N+](=O)[O-])cc1Cl
T/C (dose: 100.0 mg/kg/injection, schedule: Q04DX003 (ip), vehicle: saline with Tween-80): 101 % of control | T/C (dose: 134.0 mg/kg/injection, schedule: Q01DX009 (ip), vehicle: saline with Tween-80): 113 % of control | T/C [14]: 115 % of control | T/C (dose: 200.0 mg/kg/injection, schedule: Q04DX003 (ip), vehicle: saline with Tween-80): 105 % of control | T/C (dose: 400.0 mg/kg/injection, schedule: Q04DX003 (ip), vehicle: saline with Tween-80): 112 % of control

CNc1ccc(/C=C2\C=Cc3ccccc32)cc1
T/C (dose: 12.0 mg/kg/injection, schedule: Q01DX Z (ip), vehicle: carboxymethylcellulose (CMC)): 95 % of control | T/C (dose: 25.0 mg/kg/injection, schedule: Q01DX Z (ip), vehicle: carboxymethylcellulose (CMC)): 98 % of control | T/C [7]: 101 % of control | T/C (dose: 50.0 mg/kg/injection, schedule: Q01DX Z (ip), vehicle: carboxymethylcellulose (CMC)): 120 % of control | T/C [8]: 101 % of control | T/C (dose: 100.0 mg/kg/injection, schedule: Q01DX Z (ip), vehicle: carboxymethylcellulose (CMC)): 93 % of control | T/C [9]: 108 % of control | T/C (dose: 200.0 mg/kg/injection, schedule: Q01DX Z (ip), vehicle: carboxymethylcellulose (CMC)): 98 % of control | T/C [10]: 100 % of control

COc1cccc2c1C(=O)c1c(O)c3c(c(O)c1C2=O)C[C@@](O)(/C(C)=N/N1CCCCC1)C[C@@H]3OC1CC(N)C(O)C(C)O1 (stereo not given in full)
T/C (dose: 0.12 mg/kg/injection, schedule: Q01DX009 (ip), vehicle: water): 114 % of control | T/C (dose: 0.25 mg/kg/injection, schedule: Q01DX009 (ip), vehicle: water): 113 % of control | T/C (dose: 0.25 mg/kg/injection, schedule: Q04DX003 (ip), vehicle: water): 110 % of control | T/C (dose: 0.5 mg/kg/injection, schedule: Q01DX009 (ip), vehicle: water): 117 % of control | T/C (dose: 0.5 mg/kg/injection, schedule: Q04DX003 (ip), vehicle: water): 118 % of control | T/C (dose: 1.0 mg/kg/injection, schedule: Q04DX003 (ip), vehicle: water): 116 % of control | T/C (dose: 2.0 mg/kg/injection, schedule: Q01DX009 (ip), vehicle: water): 119 % of control | T/C (dose: 3.12 mg/kg/injection, schedule: Q01DX009 (ip), vehicle: saline with Tween-80): 150 % of control | T/C (dose: 4.0 mg/kg/injection, schedule: Q01DX009 (ip), vehicle: water): 114 % of control and 88 % of control | T/C (dose: 6.25 mg/kg/injection, schedule: Q01DX009 (ip), vehicle: saline with Tween-80): 123 % of control | T/C (dose: 16.0 mg/kg/injection, schedule: Q04DX003 (ip), vehicle: water): 86 % of control

O=C(O)c1cc2c(cc1[N+](=O)[O-])OCO2
T/C [15]: 104 % of control | T/C [16]: 92 % of control | T/C [17]: 90 % of control

CCOc1ccc(/C=N/NC(=O)COCC(=O)N/N=C/c2ccc(OCC)c(OC)c2)cc1OC
T/C [4]: 92 % of control | T/C [5]: 87 % of control | T/C [6]: 103 % of control

CCNC(=O)N1CCN(c2ccc(Cl)cc2)CC1
T/C (dose: 40.0 mg/kg/injection, schedule: Q04DX003 (ip), vehicle: saline): 101 % of control | T/C (dose: 75.0 mg/kg/injection, schedule: Q01DX001 (ip), vehicle: saline): 97 % of control | T/C (dose: 75.0 mg/kg/injection, schedule: Q04DX003 (ip), vehicle: saline): 98 % of control | T/C (dose: 150.0 mg/kg/injection, schedule: Q01DX001 (ip), vehicle: saline): 101 % of control | T/C (dose: 150.0 mg/kg/injection, schedule: Q04DX003 (ip), vehicle: saline): 95 % of control

C=CCN(CC=C)C(=O)c1cc(Cl)ccc1Cl
T/C [15]: 97 % of control | T/C [16]: 103 % of control | T/C [17]: 110 % of control

O=C1COc2ccc(F)cc2N1
T/C (dose: 100.0 mg/kg/injection, schedule: Q04DX002 (ip), vehicle: Klucel (hydroxypropylcellulose) (HPC)): 98 % of control | T/C (dose: 200.0 mg/kg/injection, schedule: Q04DX002 (ip), vehicle: Klucel (hydroxypropylcellulose) (HPC)): 102 % of control | T/C (dose: 400.0 mg/kg/injection, schedule: Q04DX002 (ip), vehicle: Klucel (hydroxypropylcellulose) (HPC)): 109 % of control

CCOC(=O)c1c(C)cn2c1OC(C)CC2(C)C (stereo not given)
T/C [3]: 105 % of control | T/C (dose: 200.0 mg/kg/injection, schedule: Q01DX001 (ip), vehicle: Klucel (hydroxypropylcellulose) (HPC)): 94 % of control | T/C (dose: 400.0 mg/kg/injection, schedule: Q01DX001 (ip), vehicle: Klucel (hydroxypropylcellulose) (HPC)): 96 % of control

CCCc1cc(CCC)n2nc(N)nc2n1
T/C (dose: 50.0 mg/kg/injection, schedule: Q01DX009 (ip), vehicle: saline with Tween-80): 100 % of control | T/C [18]: 98 % of control | T/C [14]: 96 % of control

O=NC1C(Cl)C2CC1C1C=CCC12 (stereo not given)
T/C (dose: 12.5 mg/kg/injection, schedule: Q01DX009 (ip), vehicle: Klucel (hydroxypropylcellulose) (HPC)): 96 % of control | T/C [1]: 98 % of control | T/C [2]: 91 % of control | T/C [18]: 97 % of control | T/C [11]: 94 % of control | T/C [12]: 92 % of control | T/C [13]: 87 % of control

CC(=N/N(Cc1ccccc1)c1ccccc1)/C(C)=N/N(Cc1ccccc1)c1ccccc1
T/C (dose: 100.0 mg/kg/injection, schedule: Q01DX001 (ip), vehicle: other): 89 % of control | T/C (dose: 200.0 mg/kg/injection, schedule: Q01DX001 (ip), vehicle: other): 89 % of control | T/C (dose: 400.0 mg/kg/injection, schedule: Q01DX001 (ip), vehicle: other): 89 % of control
